For test [1], the system named is Aorta. The test can be described thus: Inhibition of drug-induced vasorelaxation in rat aorta precontracted with norepinephrine in presence of nitric oxide synthase inhibitor L-NAME. Type of test: functional, tissue-based.
Test [2] deals with Aorta. The test can be described thus: Vasorelaxation effect on norepinephrine-induced contractions in rat endothelium-denuded aorta. Type of test: functional, tissue-based.
In test [3] the test system is Aorta. The test can be described thus: Vasorelaxation effect on norepinephrine-induced contractions in rat aorta with endothelium at 100 uM. Type of test: functional. Also on record: scale not given: the % may be the effect or the level left.
For test [4], the system named is Aorta. The test can be described thus: Vasorelaxation effect on norepinephrine-induced contractions in rat aorta with endothelium at 0.1 uM. Also on record: scale not given: the % may be the effect or the level left. The format is functional.

For one compound, Activity results are on record in ChEMBL document CHEMBL1139783, “Cyclonatsudamine A, a new vasodilator cyclic peptide from Citrus natsudaidai” (2007).

The structures appear in SMILES notation. Activity calls are given as the source filed them. The calls are words filed in the database; no cut-off is given here. Where a SMILES comes first, the peptide text is derived from it.

Take `CC(C)C[C@@H]1NC(=O)[C@H](Cc2ccc(O)cc2)NC(=O)CNC(=O)[C@H](CO)NC(=O)[C@@H]2CCCN2C(=O)[C@@H]2CCCN2C(=O)[C@H](CC(C)C)NC1=O` [CYCONATSUDAMINE A] (cyclo(GYLLPPS)): the outcome in the test with Aorta [1] was Active. Moreover, the result with Aorta [2] was inactive. Further, the Activity came to 80% with Aorta [3] and 40% in the test with Aorta [4].
